# Tests used:
# [1] = Co-solvent solution formulation solubility matrix; type: physicochemical
# [2] = Storage stability of R406 in murine vitreous samples; type: physicochemical, mouse
# Experimental: Stability: The extracted solution stability of R406 from murine plasma or vitreous was assessed at low (41.2nM), medium (370.4 nM), and high (3333.3 nM) concentrations in triplicate at room temperature. Blank murine plasma was spiked with the indicated concentrations of R406 and extracted solutions were stored at room temperature for day 0, and day 2. The short-term stability of R406 in murine plasma or vitreous at -20 °C was assessed at three concentrations in triplicate. […] internal standard/acetonitrile as described previously: for murine plasma samples, 50 µL of sample was quenched by addition of 100 µL of 5 mg/L OSI-906 (internal standard) in 100% acetonitrile, followed by plate sealing, shaking and centrifuging, transfer of 100 µL of supernatant injection of 10 µL of supernatant onto the LC–MS/MS system; for murine vitreous samples, 5 µL of sample quenched by addition of 45 µL of 5 mg/L OSI-906 (internal standard) in 100% acetonitrile, followed by plate sealing, shaking and centrifuging, transfer of 40 µL of supernatant injection of 10 µL of supernatant onto the LC–MS/MS system. Long term stability of R406 in murine plasma or vitreous at −80 °C was assessed. Unextracted spiked murine plasma or vitreous at low, medium, and high levels was frozen at −80 °C for 0, 7, and 14 days. Samples were thawed immediately extracted with acetonitrile/OSI-906, and quantitated. All samples were analyzed in triplicates.
# [3] = Storage stability of R406 in murine plasma samples; type: physicochemical, mouse; conditions: murine plasma at -20°C, thawed on Day 3, injected at Day 3
compound,measurement,setting,value
COc1cc(Nc2ncc(F)c(Nc3ccc4c(n3)NC(=O)C(C)(C)O4)n2)cc(OC)c1OC.O=S(=O)(O)c1ccccc1 [R406 phenylsulfonate salt],R406 Solubility,"[1]; Trial 1: 0.1% Tyloxapol, 99.9% PBS",11.7 mM
same,R406 Solubility,"[1]; Trial 4: 3% Glycerin, 97% PBS",0.4 mM
same,R406 Solubility,"[1]; Trial 5: 5% Cremaphor-eL, 95% PBS",170.1 mM
same,R406 Solubility,"[1]; Trial 6: 10% pG, 90% PBS",0.4 mM
same,R406 Solubility,"[1]; Trial 7: 15% pPG, 85% PBS",15 mM
same,R406 Solubility,"[1]; Trial 8: 0.2% Tween-80, 99.8% PBS",399.2 mM
same,R406 Solubility,[1]; Trial 9: 100% PBS,0.4 mM
same,R406 Solubility,"[1]; Trial 10: 2% PEG-8000, 0.2% Tween-80, 97.8% PBS",0.4 mM
same,R406 Solubility,"[1]; Trial 11: 0.5% EtOH, 0.2% Tween-80, 85.8% PBS",0.6 mM
same,R406 Solubility,"[1]; Trial 12: 3% Glycerin, 0.2% Tween-80, 96.8% PBS",1.0 mM
same,R406 Solubility,"[1]; Trial 13: 5% Cremaphor-eL, 0.2% Tween-80, 94.8% PBS",178.0 mM
same,R406 Solubility,"[1]; Trial 14: 10% pG, 0.2% Tween-80, 99.8% PBS",0.9 mM
same,R406 Solubility,"[1]; Trial 15: 15% pPG, 0.2% Tween-80, 85.8% PBS",31.4 mM
same,R406 Solubility,"[1]; Trial 16: 2% PEG-8000, 0.5% EtOH, 97.5% PBS",1.5 mM
same,R406 Solubility,"[1]; Trial 17: 2% PEG-8000, 3% Glycerin, 95% PBS",0.4 mM
same,R406 Solubility,"[1]; Trial 18: 2% PEG-8000, 5% Cremaphor-eL, 93% PBS",144.0 mM
same,R406 Solubility,"[1]; Trial 19: 2% PEG-8000, 10% pG, 88% PBS",1.4 mM
same,R406 Solubility,"[1]; Trial 20: 2% PEG-8000, 15% pPG, 83% PBS",22.9 mM
same,R406 Solubility,"[1]; Trial 21: 0.5% EtOH, 3% Glycerin, 96.5% PBS",0.4 mM
same,R406 Solubility,"[1]; Trial 22: 0.5% EtOH, 5% Cremaphor-eL, 94.5% PBS",183.9 mM
same,R406 Solubility,"[1]; Trial 24: 0.5% EtOH, 15% pPG, 84.5% PBS",18.4 mM
same,R406 Solubility,"[1]; Trial 25: 3% Glycerin, 5% Cremaphor-eL, 92% PBS",183.9 mM
same,R406 Solubility,"[1]; Trial 26: 3% Glycerin, 10% pG, 87% PBS",0.4 mM
same,R406 Solubility,"[1]; Trial 27: 3% Glycerin, 15% pPG, 82% PBS",18.2 mM
same,R406 Solubility,"[1]; Trial 28: 5% Cremaphor-eL, 10% pG, 85% PBS",161.5 mM
same,R406 Solubility,"[1]; Trial 29: 5% Cremaphor-eL, 15% pPG, 80% PBS",138.0 mM
same,R406 Solubility,"[1]; Trial 30: 10% pG, 15% pPG, 75% PBS",23.3 mM
same,R406 Solubility,"[1]; Trial 32: 0.5% EtOH, 5% Cremaphor-eL, 0.2% Tween-80, 94.3% PBS",830.9 mM
same,R406 Solubility,"[1]; Trial 33: 0.5% EtOH, 3% Glycerin, 5% Cremaphor-eL, 0.2% Tween-80, 91.3% PBS",773.9 mM
COc1cc(Nc2ncc(F)c(Nc3ccc4c(n3)NC(=O)C(C)(C)O4)n2)cc(OC)c1OC [R406],time extracted samples were stable,"[2]; extracted from murine vitreous, room temperature",at least 48 hours
same,Accuracy%,"[2]; extracted vitreous samples in autosampler for 2 days, injected at Day 3, High Control 3333.3 nM",91.6%
same,Accuracy%,"[2]; extracted vitreous samples in autosampler for 2 days, injected at Day 3, Low Control 41.2 nM",96.0%
same,Accuracy%,"[2]; extracted vitreous samples in autosampler for 2 days, injected at Day 3, Middle Control 370.4 nM",88.8%
same,Accuracy%,"[2]; murine vitreous at -20°C, thawed on Day 2, injected at Day 3, High Control 3333.3 nM",91.1%
same,Accuracy%,"[2]; murine vitreous at -20°C, thawed on Day 2, injected at Day 3, Low Control 41.2 nM",109.4%
same,Accuracy%,"[2]; murine vitreous at -20°C, thawed on Day 2, injected at Day 3, Middle Control 370.4 nM",93.2%
same,Accuracy%,"[2]; murine vitreous at -20°C, thawed on Day 3, injected at Day 3, High Control 3333.3 nM",90.3%
same,Accuracy%,"[2]; murine vitreous at -20°C, thawed on Day 3, injected at Day 3, Low Control 41.2 nM",96.6%
same,Accuracy%,"[2]; murine vitreous at -20°C, thawed on Day 3, injected at Day 3, Middle Control 370.4 nM",94.4%
same,Accuracy%,"[2]; murine vitreous at -80°C, injected at Day 8, High Control 3333.3 nM",96.4%
same,Accuracy%,"[2]; murine vitreous at -80°C, injected at Day 8, Low Control 41.2 nM",78.7%
same,Accuracy%,"[2]; murine vitreous at -80°C, injected at Day 8, Middle Control 370.4 nM",87.5%
same,Accuracy%,"[2]; murine vitreous at -80°C, injected at Day 15, High Control 3333.3 nM",105.2%
same,Accuracy%,"[2]; murine vitreous at -80°C, injected at Day 15, Low Control 41.2 nM",105.5%
same,Accuracy%,"[2]; murine vitreous at -80°C, injected at Day 15, Middle Control 370.4 nM",99.4%
same,time spiked samples were stable,[2]; murine vitreous stored at -20°C,at least 72 hours
same,time spiked samples were stable,[2]; murine vitreous stored at -80°C,≥ 14 days
same,Accuracy%,[3]; High Control 3333.3 nM,90.3%
same,Accuracy%,[3]; Low Control 41.2 nM,96.1%
